Assay results reported in patent US12227500B2, “Substituted pyrrolo[2,3-b]pyridines for suppressing toxic endoplasmic reticulum stress” (THE TRUSTEES OF COLUMBIA UNIVERSITY IN THE CITY OF NEW YORK, priority 2018, dated 2025).
Where two headings read alike, the source gives them in different places.

Experiments:
Assay in all cases: Radiolabeled ATP kinase assay, panel of 371 kinases (Table S6)
Format in all cases: biochemical
[1] = target: T1, panel of 371 human kinases (Homo sapiens, UniProt O14578); details: STK21/CIT; 0.1 μM; 10 μM ATP; read-out: % Enzyme Activity (relative to DMSO controls)
T1 construct: purchased Reaction Biology Corp
Excerpt: (§1) ; FIG. 38C). […]. Further targeted analyses, such as genetic knock-down or knock-out, may be warranted to parse the role of these additional kinases in our model of neurodegeneration.

[2] = target: T2, panel of 371 human kinases (Homo sapiens, UniProt O14757); details: CHK1; 0.1 μM; 10 μM ATP; read-out: % Enzyme Activity (relative to DMSO controls)
T2 construct: purchased Reaction Biology Corp
T2 sequence (O14757 whole entry): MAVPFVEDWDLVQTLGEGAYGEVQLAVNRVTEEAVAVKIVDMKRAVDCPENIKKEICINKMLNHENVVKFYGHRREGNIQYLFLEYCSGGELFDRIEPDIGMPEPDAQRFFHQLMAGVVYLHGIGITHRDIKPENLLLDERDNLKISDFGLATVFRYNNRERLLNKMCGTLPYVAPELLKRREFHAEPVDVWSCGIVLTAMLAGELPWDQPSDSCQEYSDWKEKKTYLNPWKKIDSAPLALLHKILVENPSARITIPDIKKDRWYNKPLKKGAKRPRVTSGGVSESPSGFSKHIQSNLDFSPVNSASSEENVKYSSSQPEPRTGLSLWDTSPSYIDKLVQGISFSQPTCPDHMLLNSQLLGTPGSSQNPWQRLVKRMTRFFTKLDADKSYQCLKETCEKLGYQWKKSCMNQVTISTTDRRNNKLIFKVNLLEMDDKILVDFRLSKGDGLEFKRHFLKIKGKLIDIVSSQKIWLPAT
Excerpt: as §1

[3] = target: T3, panel of 371 human kinases (Homo sapiens, UniProt O15530); details: PDK1/PDPK1; 0.1 μM; 10 μM ATP; read-out: % Enzyme Activity (relative to DMSO controls)
T3 construct: purchased Reaction Biology Corp
Excerpt: as §1

[4] = target: T4, panel of 371 human kinases (Homo sapiens, UniProt P00533); details: EGFR; 0.1 μM; 10 μM ATP; read-out: % Enzyme Activity (relative to DMSO controls)
T4 construct: purchased Reaction Biology Corp
T4 sequence (P00533 25-1210): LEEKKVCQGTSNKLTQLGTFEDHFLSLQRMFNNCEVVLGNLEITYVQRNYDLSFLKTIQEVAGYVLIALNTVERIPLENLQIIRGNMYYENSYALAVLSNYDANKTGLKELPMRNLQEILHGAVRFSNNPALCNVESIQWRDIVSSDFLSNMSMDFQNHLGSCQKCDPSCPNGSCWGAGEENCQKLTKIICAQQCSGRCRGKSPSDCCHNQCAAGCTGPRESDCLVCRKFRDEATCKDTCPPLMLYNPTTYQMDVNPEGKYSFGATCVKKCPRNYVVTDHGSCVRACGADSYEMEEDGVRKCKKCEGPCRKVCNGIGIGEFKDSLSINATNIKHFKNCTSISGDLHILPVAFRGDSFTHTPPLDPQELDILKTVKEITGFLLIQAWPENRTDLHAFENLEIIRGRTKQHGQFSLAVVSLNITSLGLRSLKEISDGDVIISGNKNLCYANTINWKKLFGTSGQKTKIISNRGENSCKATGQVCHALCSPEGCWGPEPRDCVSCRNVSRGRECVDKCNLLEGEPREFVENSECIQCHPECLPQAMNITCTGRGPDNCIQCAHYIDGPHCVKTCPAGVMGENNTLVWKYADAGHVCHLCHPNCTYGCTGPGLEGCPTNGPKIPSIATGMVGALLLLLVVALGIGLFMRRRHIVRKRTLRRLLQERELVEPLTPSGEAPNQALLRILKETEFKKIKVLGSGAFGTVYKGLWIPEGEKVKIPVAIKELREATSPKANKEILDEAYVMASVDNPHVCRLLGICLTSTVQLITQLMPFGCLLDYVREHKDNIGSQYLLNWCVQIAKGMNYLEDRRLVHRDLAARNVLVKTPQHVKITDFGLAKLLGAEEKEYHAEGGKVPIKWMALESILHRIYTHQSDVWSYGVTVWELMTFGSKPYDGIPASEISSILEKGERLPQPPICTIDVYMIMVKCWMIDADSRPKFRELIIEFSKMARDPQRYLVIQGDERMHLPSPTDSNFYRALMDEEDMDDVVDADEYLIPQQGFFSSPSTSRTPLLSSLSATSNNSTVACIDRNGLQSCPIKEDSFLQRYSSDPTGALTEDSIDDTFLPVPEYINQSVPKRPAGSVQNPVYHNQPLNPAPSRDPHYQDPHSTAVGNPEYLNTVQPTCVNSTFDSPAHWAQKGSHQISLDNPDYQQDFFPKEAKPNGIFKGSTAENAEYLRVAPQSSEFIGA
Excerpt: as §1

[5] = target: T5, panel of 371 human kinases (Homo sapiens, UniProt P05771); details: PKCb1; 0.1 μM; 10 μM ATP; read-out: % Enzyme Activity (relative to DMSO controls)
T5 construct: purchased Reaction Biology Corp
Excerpt: as §1

[6] = target: T6, panel of 371 human kinases (Homo sapiens, UniProt P24941); details: 0.1 μM, 10 μM ATP, read-out: % Enzyme Activity (relative to DMSO controls)
T6 construct: purchased Reaction Biology Corp
Excerpt: as §1

[7] = target: T7, panel of 371 human kinases (Homo sapiens, UniProt P37023); details: ALK1/ACVRL1; 0.1 μM; 10 μM ATP; read-out: % Enzyme Activity (relative to DMSO controls)
T7 construct: purchased Reaction Biology Corp
Excerpt: as §1

[8] = target: T8, panel of 371 human kinases (Homo sapiens, UniProt P50613); details: CDK7/cyclin H; 0.1 μM; 10 μM ATP; read-out: % Enzyme Activity (relative to DMSO controls)
T8 construct: purchased Reaction Biology Corp
T8 sequence (P50613 whole entry): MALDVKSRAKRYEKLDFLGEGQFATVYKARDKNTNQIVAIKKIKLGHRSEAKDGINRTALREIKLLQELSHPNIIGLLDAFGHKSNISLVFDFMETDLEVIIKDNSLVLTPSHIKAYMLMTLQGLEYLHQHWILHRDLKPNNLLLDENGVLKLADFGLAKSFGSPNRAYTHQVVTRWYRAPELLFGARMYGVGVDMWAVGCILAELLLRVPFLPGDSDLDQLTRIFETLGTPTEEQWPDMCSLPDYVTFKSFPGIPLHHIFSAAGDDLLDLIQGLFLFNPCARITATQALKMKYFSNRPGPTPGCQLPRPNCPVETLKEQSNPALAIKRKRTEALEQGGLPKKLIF
Excerpt: as §1

[9] = target: T9, panel of 371 human kinases (Homo sapiens, UniProt Q07912); details: ACK1; 0.1 μM; 10 μM ATP; read-out: % Enzyme Activity (relative to DMSO controls)
T9 construct: purchased Reaction Biology Corp
Excerpt: as §1

[10] = target: T10, panel of 371 human kinases (Homo sapiens, UniProt Q14012); details: CAMK1a; 0.1 μM; 10 μM ATP; read-out: % Enzyme Activity (relative to DMSO controls)
T10 construct: purchased Reaction Biology Corp
T10 sequence (Q14012 whole entry): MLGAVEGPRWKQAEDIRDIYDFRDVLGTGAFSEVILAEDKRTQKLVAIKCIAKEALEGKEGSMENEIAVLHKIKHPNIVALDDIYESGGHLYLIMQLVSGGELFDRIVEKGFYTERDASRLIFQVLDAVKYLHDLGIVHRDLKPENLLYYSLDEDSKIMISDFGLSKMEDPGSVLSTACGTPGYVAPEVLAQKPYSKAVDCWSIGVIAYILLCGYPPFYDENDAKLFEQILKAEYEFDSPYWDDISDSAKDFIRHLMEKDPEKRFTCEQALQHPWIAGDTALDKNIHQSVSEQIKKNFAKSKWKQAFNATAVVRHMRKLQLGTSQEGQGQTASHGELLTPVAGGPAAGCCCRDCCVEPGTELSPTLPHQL
Excerpt: as §1

[11] = target: T11, panel of 371 human kinases (Homo sapiens, UniProt Q16832); details: DDR2; 0.1 μM; 10 μM ATP; read-out: % Enzyme Activity (relative to DMSO controls)
T11 construct: purchased Reaction Biology Corp
Excerpt: as §1

[12] = target: T12, panel of 371 human kinases (Homo sapiens, UniProt Q6P5Z2); details: PKN3/PRK3; 0.1 μM; 10 μM ATP; read-out: % Enzyme Activity (relative to DMSO controls)
T12 construct: purchased Reaction Biology Corp
Excerpt: as §1

[13] = target: T13, panel of 371 human kinases (Homo sapiens, UniProt Q76MJ5); details: ERN2/IRE2; 0.1 μM; 10 μM ATP; read-out: % Enzyme Activity (relative to DMSO controls)
T13 construct: purchased Reaction Biology Corp
Excerpt: as §1

[14] = target: T14, panel of 371 human kinases (Homo sapiens, UniProt Q86UE8); details: TLK2; 0.1 μM; 10 μM ATP; read-out: % Enzyme Activity (relative to DMSO controls)
T14 construct: purchased Reaction Biology Corp
Excerpt: as §1

[15] = target: T15, panel of 371 human kinases (Homo sapiens, UniProt Q86Y07); details: VRK2; 0.1 μM; 10 μM ATP; read-out: % Enzyme Activity (relative to DMSO controls)
T15 construct: purchased Reaction Biology Corp
Excerpt: as §1

[16] = target: T16, panel of 371 human kinases (Homo sapiens, UniProt Q8NEV4); details: MYO3A; 0.1 μM; 10 μM ATP; read-out: % Enzyme Activity (relative to DMSO controls)
T16 construct: purchased Reaction Biology Corp
Excerpt: as §1

[17] = target: T17, panel of 371 human kinases (Homo sapiens, UniProt Q9BXA6); details: SSTK/TSSK6; 0.1 μM; 10 μM ATP; read-out: % Enzyme Activity (relative to DMSO controls)
T17 construct: purchased Reaction Biology Corp
T17 sequence (Q9BXA6 whole entry): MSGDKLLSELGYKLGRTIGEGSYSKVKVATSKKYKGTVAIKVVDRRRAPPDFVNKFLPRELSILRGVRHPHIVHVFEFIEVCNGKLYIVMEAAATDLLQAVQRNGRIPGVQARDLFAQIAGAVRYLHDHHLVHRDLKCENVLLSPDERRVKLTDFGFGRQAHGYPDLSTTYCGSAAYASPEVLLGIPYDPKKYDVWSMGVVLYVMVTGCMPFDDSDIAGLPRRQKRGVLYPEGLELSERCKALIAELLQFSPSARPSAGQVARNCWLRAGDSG
Excerpt: as §1

[18] = target: T18, panel of 371 human kinases (Homo sapiens, UniProt Q9H1R3); details: MLCK2/MYLK2; 0.1 μM; 10 μM ATP; read-out: % Enzyme Activity (relative to DMSO controls)
T18 construct: purchased Reaction Biology Corp
T18 sequence (Q9H1R3 whole entry): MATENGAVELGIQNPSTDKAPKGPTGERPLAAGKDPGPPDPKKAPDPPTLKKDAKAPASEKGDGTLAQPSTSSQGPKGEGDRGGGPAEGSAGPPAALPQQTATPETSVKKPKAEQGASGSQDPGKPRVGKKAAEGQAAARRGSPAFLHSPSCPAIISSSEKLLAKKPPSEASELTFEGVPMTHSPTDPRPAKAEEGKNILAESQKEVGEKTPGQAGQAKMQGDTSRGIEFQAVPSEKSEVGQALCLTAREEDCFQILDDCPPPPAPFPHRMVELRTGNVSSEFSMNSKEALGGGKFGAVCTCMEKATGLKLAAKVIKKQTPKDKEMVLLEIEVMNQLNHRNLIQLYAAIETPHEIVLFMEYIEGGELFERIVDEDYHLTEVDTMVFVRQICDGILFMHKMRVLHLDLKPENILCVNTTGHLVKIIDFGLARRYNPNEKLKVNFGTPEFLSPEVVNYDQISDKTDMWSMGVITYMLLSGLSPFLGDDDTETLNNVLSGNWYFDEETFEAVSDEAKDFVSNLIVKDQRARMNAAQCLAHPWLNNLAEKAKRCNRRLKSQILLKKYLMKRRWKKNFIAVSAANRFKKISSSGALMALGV
Excerpt: as §1

[19] = target: T19, panel of 371 human kinases (Homo sapiens, UniProt Q9H4B4); details: PLK3; 0.1 μM; 10 μM ATP; read-out: % Enzyme Activity (relative to DMSO controls)
T19 construct: purchased Reaction Biology Corp
Excerpt: as §1

[20] = target: T20, panel of 371 human kinases (Homo sapiens, UniProt Q9NYY3); details: PLK2; 0.1 μM; 10 μM ATP; read-out: % Enzyme Activity (relative to DMSO controls)
T20 construct: purchased Reaction Biology Corp
Excerpt: as §1

[21] = target: T21, panel of 371 human kinases (Homo sapiens, UniProt Q9UEE5); details: DRAK1/STK17A; 0.1 μM; 10 μM ATP; read-out: % Enzyme Activity (relative to DMSO controls)
T21 construct: purchased Reaction Biology Corp
T21 sequence (Q9UEE5 whole entry): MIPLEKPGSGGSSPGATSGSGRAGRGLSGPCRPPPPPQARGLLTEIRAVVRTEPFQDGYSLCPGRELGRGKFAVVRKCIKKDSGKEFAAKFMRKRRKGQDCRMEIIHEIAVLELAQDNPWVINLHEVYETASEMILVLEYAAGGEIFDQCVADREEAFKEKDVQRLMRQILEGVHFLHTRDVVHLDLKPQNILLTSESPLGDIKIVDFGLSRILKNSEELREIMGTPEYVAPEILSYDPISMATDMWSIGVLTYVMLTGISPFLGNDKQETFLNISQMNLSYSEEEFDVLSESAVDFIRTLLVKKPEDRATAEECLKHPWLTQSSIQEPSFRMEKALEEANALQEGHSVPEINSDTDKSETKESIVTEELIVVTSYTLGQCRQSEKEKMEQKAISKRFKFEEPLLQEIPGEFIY
Excerpt: as §1

[22] = target: T22, panel of 371 human kinases (Homo sapiens, UniProt Q9UEW8); details: STK39/STLK3; 0.1 μM; 10 μM ATP; read-out: % Enzyme Activity (relative to DMSO controls)
T22 construct: purchased Reaction Biology Corp
Excerpt: as §1

[23] = target: T23, panel of 371 human kinases (Homo sapiens, UniProt Q9UKE5); details: TNIK; 0.1 μM; 10 μM ATP; read-out: % Enzyme Activity (relative to DMSO controls)
T23 construct: purchased Reaction Biology Corp
T23 sequence (Q9UKE5 whole entry): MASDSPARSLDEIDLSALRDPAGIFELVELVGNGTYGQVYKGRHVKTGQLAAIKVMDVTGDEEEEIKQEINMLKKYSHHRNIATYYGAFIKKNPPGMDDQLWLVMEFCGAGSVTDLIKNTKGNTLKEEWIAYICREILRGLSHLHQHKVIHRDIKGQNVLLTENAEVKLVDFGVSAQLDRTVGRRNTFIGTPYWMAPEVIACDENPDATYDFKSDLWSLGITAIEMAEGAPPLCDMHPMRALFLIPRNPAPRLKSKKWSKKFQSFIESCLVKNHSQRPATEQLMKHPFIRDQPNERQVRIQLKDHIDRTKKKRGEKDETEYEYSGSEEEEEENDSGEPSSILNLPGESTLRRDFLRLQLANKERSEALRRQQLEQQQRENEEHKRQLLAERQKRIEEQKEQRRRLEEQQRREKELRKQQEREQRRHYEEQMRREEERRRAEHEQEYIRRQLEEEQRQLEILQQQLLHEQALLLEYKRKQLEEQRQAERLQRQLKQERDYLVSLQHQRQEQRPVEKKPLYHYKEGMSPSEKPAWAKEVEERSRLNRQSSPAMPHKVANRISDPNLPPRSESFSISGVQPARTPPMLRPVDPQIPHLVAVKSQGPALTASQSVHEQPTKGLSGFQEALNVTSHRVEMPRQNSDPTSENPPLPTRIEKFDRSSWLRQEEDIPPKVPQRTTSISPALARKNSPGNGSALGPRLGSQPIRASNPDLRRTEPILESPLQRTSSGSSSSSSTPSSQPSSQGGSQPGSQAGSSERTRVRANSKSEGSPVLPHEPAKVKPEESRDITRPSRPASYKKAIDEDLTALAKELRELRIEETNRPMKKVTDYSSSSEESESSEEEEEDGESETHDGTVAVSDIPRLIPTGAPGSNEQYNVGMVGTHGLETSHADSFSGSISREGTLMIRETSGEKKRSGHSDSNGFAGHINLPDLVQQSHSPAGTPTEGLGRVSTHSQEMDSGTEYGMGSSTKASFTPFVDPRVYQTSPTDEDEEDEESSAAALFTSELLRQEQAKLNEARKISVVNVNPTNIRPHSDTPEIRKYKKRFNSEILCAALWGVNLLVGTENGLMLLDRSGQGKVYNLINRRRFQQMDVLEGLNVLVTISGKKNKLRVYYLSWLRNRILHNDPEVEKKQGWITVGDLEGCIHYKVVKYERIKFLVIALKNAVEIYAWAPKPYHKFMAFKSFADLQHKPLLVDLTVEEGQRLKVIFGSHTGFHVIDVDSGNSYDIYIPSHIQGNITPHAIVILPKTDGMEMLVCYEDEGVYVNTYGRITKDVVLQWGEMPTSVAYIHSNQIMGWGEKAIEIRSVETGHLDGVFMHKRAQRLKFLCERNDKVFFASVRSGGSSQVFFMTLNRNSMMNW
Excerpt: as §1

Row | SMILES | remaining activity at 0.1 µM [1] [%] | remaining activity at 0.1 µM [2] [%] | remaining activity at 0.1 µM [3] [%] | remaining activity at 0.1 µM [4] [%] | remaining activity at 0.1 µM [5] [%] | remaining activity at 0.1 µM ([6]; CDK2/cyclin A1) [%] | remaining activity at 0.1 µM ([6]; CDK2/cyclin A) [%] | remaining activity at 0.1 µM ([6]; CDK2/cyclin E2) [%] | remaining activity at 0.1 µM ([6]; CDK2/cyclin E) [%] | remaining activity at 0.1 µM ([6]; CDK2/cyclin O) [%] | remaining activity at 0.1 µM [7] [%] | remaining activity at 0.1 µM [8] [%] | remaining activity at 0.1 µM [9] [%] | remaining activity at 0.1 µM [10] [%] | remaining activity at 0.1 µM [11] [%] | remaining activity at 0.1 µM [12] [%] | remaining activity at 0.1 µM [13] [%] | remaining activity at 0.1 µM [14] [%] | remaining activity at 0.1 µM [15] [%] | remaining activity at 0.1 µM [16] [%] | also measured
1 | CN1CCN(Cc2ccc(-c3cnc4[nH]cc(-c5ccc6[nH]ccc6c5)c4c3)cc2)CC1 [Compound 1, 3-(1H-Indol-5-yl)-5-(4-((4-methylpiperazin-1-yl)methyl)phenyl)-1H-pyrrolo[2,3-b]pyridine, reference compound] | 103 | 90 | 110 | 103 | 78.3 | 94.2 | 90.2 | 110 | 96.1 | 102 | 106 | 91.4 | 87.3 | 100 | 102 | 84.7 | 92.3 | 93 | 99.8 | 88.6 | remaining activity at 0.1 µM [17]: 121%; remaining activity at 0.1 µM [18]: 66%; remaining activity at 0.1 µM [19]: 106%; remaining activity at 0.1 µM [20]: 97.2%; remaining activity at 0.1 µM [21]: 88.7%; remaining activity at 0.1 µM [22]: 90.7%; remaining activity at 0.1 µM [23]: 5.84%
2 | OCCN1CCN(Cc2ccc(-c3cnc4[nH]cc(-c5cccc(Cl)c5)c4c3)cc2)CC1 [Compound 12k, 2-(4-(4-(3-(3-Chlorophenyl)-1H-pyrrolo[2,3-b]pyridin-5-yl)benzyl)piperazin-1-yl)ethan-1-ol] | 104 | 75 | 92.7 | 96.2 | 86.2 | 87.1 | 83.1 | 89.6 | 98.3 | 82.5 | 100 | 89.2 | 93.6 | 121 | 100 | 93.7 | 64.3 | 95.2 | 98.6 | 79.1 | remaining activity at 0.1 µM [17]: 102%; remaining activity at 0.1 µM [18]: 78.9%; remaining activity at 0.1 µM [19]: 103%; remaining activity at 0.1 µM [20]: 101%; remaining activity at 0.1 µM [21]: 88.8%; remaining activity at 0.1 µM [22]: 77.3%; remaining activity at 0.1 µM [23]: -0.01%
